Active and inactive are the calls of the source.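 Rule for the calls: active = IC50 at or below a set limit; inactive = the rest.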

The test system of this assay is HL-1 cardiomyocytes, 2-deoxyglucose injury, ATPLite luminescence, 2 h. Briefly: 2-DG-induced HL-1 ATP loss suppression – cell-based, ATPLite luminescence, dose response (AID 602217).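 Note: cells kept in glucose-free DMEM during the 2-deoxyglucose injury; potency of protection where actives preserve ATP signal against 2-deoxyglucose stress.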 Background: ATP-based viability assays read luminescence as a measure of living cells.
The term IC50 denotes the midpoint of a concentration-inhibition curve. `COCCN1Cc2cccc(C(=O)Nc3cccc(-c4nc5ccccc5[nH]4)c3)c2C1=O`: the IC50 was 8.5 µM. With `CC(=O)Nc1cc(-c2ccc(C(=O)NC3CC3)cc2)cn2c(-c3cccc(C(C)=O)c3)cnc12`, the IC50 was 12.7 µM. Turning to `CN(C(=O)c1sc2nc(N3CCOCC3)c3c(c2c1N)CCCC3)c1ccccc1`, the IC50 is > 79 µM (inactive).

For the molecule `N#Cc1c(-c2ccco2)cc(-c2cccnc2)nc1N`, the IC50 is 14.6 µM.

Turning to `COc1cc(-c2cc(NC(C)=O)c3ncc(-c4ccc(C(C)=O)cc4)n3c2)cc(OC)c1OC`, the IC50 was > 79 µM (inactive). Then `C[C@@H]1CN([C@@H](C)CO)C(=O)c2cc(NC(=O)Nc3ccccc3)ccc2O[C@H]1CN(C)C(=O)Nc1cccc2ccccc12`, with > 79 µM (inactive); and `CC(=O)c1ccc(-c2cnc3c(NC=O)cc(-c4cccc(NS(C)(=O)=O)c4)cn23)cc1`, with > 79 µM (inactive). With `COc1cc(NC(=O)c2ccco2)c(OC)cc1NC(=O)c1cc(OC)c(OC)c(OC)c1`, the IC50 is 18.1 µM. Then `COc1ccc(OC)c(/C=N/NC(=O)c2cc3c(OC)c(OC)ccc3[nH]2)c1`, with > 79 µM (inactive); and `CN(C)S(=O)(=O)c1ccc2[nH]cc(/C=C/c3nc4ccccc4c(=O)n3-c3ccccc3)c2c1`, with 5 µM; and `CC(=O)c1ccc(-c2ccc(C(=O)Nc3nc(-c4ccccn4)cs3)o2)cc1`, with > 79 µM (inactive). Next, `Nc1c(C(=O)N/N=C/c2cccnc2)oc2nc(-c3ccco3)cc(-c3ccco3)c12`: > 79 µM (inactive); `CCOc1cc(-c2cc(-c3ccc(N)cc3)nc(N)c2C#N)ccc1O`: > 79 µM (inactive); `COC(=O)c1cc2ccccn2c2c(C(=O)OC)c(C(=O)OC)cc1-2`: > 79 µM (inactive). Then `O=C(COC(=O)c1ccccc1C(=O)OCC(=O)NCCc1c[nH]c2ccccc12)NCCc1c[nH]c2ccccc12`, with > 79 µM (inactive); and `O=S(=O)(c1ccccc1)N1CCN(c2nc(-c3cccnc3)nc3ccccc23)CC1`, with 51.6 µM (inactive); and `COc1ccc(N(CC(=O)Nc2cccc(C(C)=O)c2)S(=O)(=O)c2ccc(NC(C)=O)cc2)cc1`, with > 79 µM (inactive). In the case of `COc1ccccc1NC(=O)c1cc(-c2cc(OC)c(OC)c(OC)c2)nc2ccccc12`, the IC50 was 14.3 µM. Then `CCCNC(=O)c1ccc(N2CCC3(CC2)CC(c2ccccc2)=NO3)c(NC(=O)c2ccco2)c1`, with 10.3 µM.

Consider `CCOc1ccccc1Nc1nnc(SCc2nnc(-c3cc(OC)c(OC)c(OC)c3)o2)s1`, for which the IC50 is 14.6 µM. Next, `CCOc1ccc(-n2cc(-c3ccccc3)c3c(N4CCOCC4)ncnc32)cc1`: 7.65 µM.

As to `Cc1ccc(-n2cc(-c3ccccc3)c3c(N4CCOCC4)ncnc32)cc1`, the IC50 is 7.85 µM. Then `CC(C)(C)OC(=O)CNC(=O)c1[nH]cnc1C(=O)NCC(=O)OCc1ccccc1`, with 21.7 µM (inactive). Next, `Fc1ccc(-n2cc(-c3ccccc3)c3c(N4CCOCC4)ncnc32)cc1`: 8.35 µM; `COc1ccccc1NC(=O)c1cc(-c2ccc(OC)c(OC)c2)nc2ccccc12`: 15.6 µM.

On to `NC(=O)c1nsc(C(=O)N(Cc2ccco2)C(C(=O)NCc2ccccc2)c2ccc(O)cc2)c1N` (centres undefined), for which the IC50 is 32.2 µM (inactive). Then `Cc1ccc(NC(=O)c2nc[nH]c2C(=O)NCCCNC(=O)c2[nH]cnc2C(=O)Nc2ccc(C)cc2)cc1`, with > 79 µM (inactive); and `O=C(c1ccc(-c2nc3ccccc3s2)o1)N1CCN(c2ccccc2O)CC1`, with > 79 µM (inactive). Next, `O=C(Nc1ccccc1)c1nc[nH]c1C(=O)NCCCCNC(=O)c1[nH]cnc1C(=O)Nc1ccccc1`: 6.36 µM; `CCOc1ncccc1C(=O)Nc1cccc(-c2nc3cccnc3s2)c1`: > 79 µM (inactive). As for `CC(C)(C)OC(=O)C[C@@H]1C/C=C\C[C@@H](CC(=O)N[C@@H](CO)Cc2ccccc2)C(=O)NC[C@@H](c2ccccc2)OC1=O`, the IC50 is > 79 µM (inactive). Next, `COc1cc(C(=O)NCC(=O)N/N=C/c2ccc(-c3cccc([N+](=O)[O-])c3)o2)cc(OC)c1OC`: > 79 µM (inactive).

On to `COc1ccccc1OP(=O)(Nc1cccnc1)Oc1ccccc1OC`, for which the IC50 is 21.2 µM (inactive).

Consider `COc1ccc(Nc2nnc(SCc3cc(=O)n4ccsc4n3)s2)cc1`, for which the IC50 was 0.26 µM.

As for `CNC(=O)c1ccc(-c2sc3nc(N4CCOCC4)c4c(c3c2N)CC(C)(C)OC4)o1`, the IC50 is 46.1 µM (inactive).

`COc1ccc(NC(=O)c2cc(-c3ccccn3)nc3ccccc23)cc1S(=O)(=O)N(C)C`: the IC50 was 20.5 µM (inactive). Then `CC12C=CC(=O)CC1CCC1C2CCC2(C)C(O)C(O)CC12` (centres undefined), with > 79 µM (inactive); and `CC(=O)Nc1cccc(-c2cc(NC(C)=O)c3ncc(-c4ccccc4)n3c2)c1`, with 30.9 µM (inactive); and `Cc1ccccc1N(C(=O)c1snc(C(N)=O)c1N)C(C(=O)NCc1ccccc1)c1ccc(O)cc1` (centres undefined), with > 79 µM (inactive). Then `COc1cc(-c2cc(C(=O)Nc3ccccc3N3CCOCC3)c3ccccc3n2)cc(OC)c1OC`, with 13.1 µM. As to `NC(=O)COc1ccc2oc(=O)cc(-c3cc4ccccc4o3)c2c1`, the IC50 was > 79 µM (inactive). Next, `CCN(CC(=O)Nc1ccc(OC)cc1)C(=O)c1cc(-c2cccs2)nn1-c1ccccc1`: 17.6 µM; `C=CCn1cnc2c(c1=O)c1nc3ccccc3nc1n2/N=C/c1cc(OC)c(OC)c(OC)c1`: 5.93 µM; `COc1ccc(-c2csc(NC(=O)CCCc3nc4ccccc4c(=O)[nH]3)n2)cc1OC`: > 79 µM (inactive). For `COc1ccc2[nH]c(=O)c(CN(Cc3cccnc3)S(=O)(=O)c3ccccc3F)cc2c1`, the IC50 was 18.2 µM.

As to `CC(C)(C)NC(=O)c1cc(NC(=O)c2cccs2)cc(NC(=O)c2cccs2)c1`, the IC50 is > 79 µM (inactive).

For the molecule `COc1cc(/C=C(\C#N)c2nc3ccc(C)cc3[nH]2)c([N+](=O)[O-])cc1OC`, the IC50 is > 79 µM (inactive). Next, `COc1cc(C(=O)N/N=C/c2ccc(OC(=O)c3cccc(C)c3)c(OC)c2)ccc1O`: > 79 µM (inactive); `COc1cc(-c2cnc3c(NC=O)cc(-c4cccnc4)cn23)cc(OC)c1OC`: 7.57 µM; `COc1ccc(CCNc2nc(-c3cccnc3)nc3ccccc23)cc1OC`: 55 µM (inactive). Then `Cc1[nH]c2ccccc2c1/C=N/NC(=O)c1cc(-c2ccccc2)n[nH]1`, with 22.8 µM (inactive); and `COc1cccc(CN(C)C(=O)C(Cc2ccccc2)NC(=O)c2ccccc2)c1OC` (centres undefined), with > 79 µM (inactive); and `COc1ccc(-c2cc(-c3nnc(COC(=O)C4CC4C)o3)c3ccccc3n2)cc1OC` (centres undefined), with > 79 µM (inactive).

On to `Cc1cc(C)c(C)c(S(=O)(=O)N2CCN(C(=O)c3cc(=O)[nH]c4ccccc34)CC2)c1C`, for which the IC50 was 23.7 µM (inactive). Then `CC(=O)Nc1ccc(Nc2nc(-c3sc(NC(C)=O)nc3C)cs2)cc1`, with 43.6 µM (inactive). On to `CC1Nc2ncnc(N3CCN(c4ccccc4)CC3)c2N(Cc2ccc(Cl)cc2)C1=O` (centres undefined), for which the half-maximal inhibitory concentration (IC50) was 1.95 µM. Next, `CC(=O)c1cccc(Nc2nc3ccccc3n3cnnc23)c1`: > 79 µM (inactive); `CC(=O)c1ccc(-c2cnc3c(NC=O)cc(-c4ccc(C(=O)NC5CC5)cc4)cn23)cc1`: 20 µM (inactive); `COc1ccc(C(=O)Nc2cccc(/C(C)=N/NC(=O)c3ccc([N+](=O)[O-])c(C)c3)c2)cc1OC`: 5.18 µM.

For the molecule `CCn1nc(C(=O)Nc2nc(-c3ccccn3)cs2)c2ccccc2c1=O`, the IC50 was 13 µM. Next, `COc1cc(-c2cc(C(=O)Nc3cccc(C(C)=O)c3)c3ccccc3n2)cc(OC)c1OC`: 9.9 µM; `O=C(Nc1ccccc1)c1nc[nH]c1C(=O)NCCNC(=O)c1[nH]cnc1C(=O)Nc1ccccc1`: 4.82 µM. Next, `COc1ccc(-c2cnc3c(NC=O)cc(-c4cccc(NS(C)(=O)=O)c4)cn23)cc1OC`: 33.5 µM (inactive); `COc1ccc(/C=N/NC(=O)c2ccc(COc3cccc4cccnc34)cc2)cc1OC`: > 79 µM (inactive). Regarding `CC(OC(=O)c1cc(-c2cccnc2)nc2ccccc12)C(=O)Nc1ccc2ccccc2c1` (centres undefined), the IC50 was > 79 µM (inactive). Next, `COc1cc(-c2cc(C(=O)OCC(=O)NC3CC3)c3ccccc3n2)cc(OC)c1OC`: 47.4 µM (inactive); `Cc1cccc(NC(=O)c2nc[nH]c2C(=O)NCCCCNC(=O)c2[nH]cnc2C(=O)Nc2cccc(C)c2)c1`: > 79 µM (inactive); `CC(C)=NNc1cnnc2ccc([N+](=O)[O-])cc12`: > 79 µM (inactive). Then `COc1ccc(-c2nn(-c3ccccc3)cc2C(=O)Nc2nccs2)cc1`, with 53.5 µM (inactive); and `CCOC(=O)C(Cc1ccc(NC(=O)/C(=C/c2ccc(OC(C)=O)cc2)NC(C)=O)cc1)N1C(=O)c2ccccc2C1=O` (centres undefined), with 52.5 µM (inactive). Then `COc1cc(-c2cc(NC(C)=O)c3ncc(-c4ccc(F)cc4)n3c2)cc(OC)c1OC`, with > 79 µM (inactive); and `COc1cc(-c2cc3nc(NCCc4ccc(S(N)(=O)=O)cc4)ccn3n2)cc(OC)c1OC`, with 48.7 µM (inactive). `COc1cc(/C=C/C(=O)Nc2ccc3nc4n(c(=O)c3c2)CCCC4)cc(OC)c1OC`: the IC50 was 51.5 µM (inactive).

Take `Cc1ccc(-c2csc(N3CCC[C@@H]3C(=O)NCCn3c(-c4ccncc4)nc4ccccc43)n2)cc1`: the IC50 was > 79 µM (inactive). Then `CCN1C(=O)/C(=C/c2nc3ccccc3c(=O)[nH]2)c2ccccc21`, with > 79 µM (inactive); and `COc1ccc(-c2cc(NC=O)c3ncc(-c4ccc(C(C)=O)cc4)n3c2)cn1`, with 22.2 µM (inactive); and `CCOc1cc(/C=C/c2ccc3cccc([N+](=O)[O-])c3n2)ccc1OCC(=O)N(C)C`, with 40.3 µM (inactive). Then `CCOc1ccc(C(C(=O)NCC2CCCO2)N(C(=O)c2snc(C(N)=O)c2N)c2ccccc2F)cc1` (centres undefined), with 44.3 µM (inactive). Next, `O=C(C(=O)N(Cc1ccccc1)Cc1ccccc1)c1c(-c2ccccc2)[nH]c2ccccc12`: 4.8 µM.

The record behind these values is PubChem BioAssay AID602217 (Sanford-Burnham Center for Chemical Genomics, 2012).
